The source of these data is patent US20240285656A1, “CANNABIDIOL (CBD) AND TERPENE F[…] INCREASES RESTORATIVE SLEEP IN HUMANS” (Defined Research, Inc., priority 2022, published 2024).

For data set [1] the following is noted: cited from earlier work.
For data set [2] the following is noted: after one week of dosing; effect blocked by flumazenil; cited from earlier work.
The conditions of data set [3]: preclinical data; cited from earlier work.
The conditions of data set [4]: rodents; cited from earlier work.
For data set [5], the system named is GABAA receptor. To be noted: cited from earlier work.
The subject of data set [6] is GABAA receptor. To be noted: cited from earlier work; for GABAA receptor activity in cells: cell experiments.
For the next data set, the target named is T1, SSADH (Homo sapiens, UniProt P51649).
T1 sequence (P51649 48-535): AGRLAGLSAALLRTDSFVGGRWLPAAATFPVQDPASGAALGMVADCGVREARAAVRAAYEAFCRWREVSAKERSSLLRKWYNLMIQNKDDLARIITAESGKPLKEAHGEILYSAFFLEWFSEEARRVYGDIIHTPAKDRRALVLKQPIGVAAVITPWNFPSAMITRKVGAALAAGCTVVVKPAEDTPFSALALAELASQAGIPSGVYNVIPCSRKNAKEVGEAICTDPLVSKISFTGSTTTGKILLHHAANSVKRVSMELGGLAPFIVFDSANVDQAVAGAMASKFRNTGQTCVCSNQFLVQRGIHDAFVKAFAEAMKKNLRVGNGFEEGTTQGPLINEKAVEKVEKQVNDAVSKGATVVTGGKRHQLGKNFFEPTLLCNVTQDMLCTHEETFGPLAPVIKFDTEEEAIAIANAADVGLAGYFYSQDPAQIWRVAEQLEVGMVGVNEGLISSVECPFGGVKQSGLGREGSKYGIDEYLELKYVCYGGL
To be noted: cited from earlier work.

Data set [7] in a line: Clinical study 1 (Le Rêve 1.0): sleep physiology by Whoop sleep-tracking wristband, double-blind placebo-controlled crossover. Type of data set: in vivo, humans. To be noted: participant DR11; 7 days per treatment; relative to placebo. Here is the method: Two independent clinical studies were completed to determine the effects of the CBD formulation on the structure and function of sleep physiology. Each of these independent studies were performed as a double-blind, placebo-controlled, randomized, crossover investigational study to determine if the CBD formulation influences sleep physiology in humans.
Primary sleep physiology data was collected from study participants in a completely unbiased manner from a non-invasive sleep-tracking wristband, called “Whoop” (https://www.whoop.com), which electronically collects and transmits sleep data from study participants in the comfort of their own beds. The wristband collects hundreds of data points per second from a 3-axis accelerometer, 3-axis gyroscope, and heart rate sensor. The wristband can accurately measure latency to fall asleep, total sleep time, sleep fragmentation, as well as the time spent in each sleep stage [Light, Slow Wave (Deep), Rapid Eye Movement (REM), and Awake]. The wristband also collects data using photoplethysmography (PPG), a technique that involves measuring blood flow by assessing superficial changes in blood volume. Heart rate, heart rate variability, and respiratory rate, can all be derived from PPG data, and all of these metrics are used in Whoop's sleep detection and staging algorithms. […]

Data set [8] can be described thus: Clinical study 1: modified Hamilton Anxiety Rating Scale. It is filed as in vivo, humans. To be noted: responders n=10; placebo 15. From the text:
FIGS. 8A-8C are graphs showing the CBD formulation Decreasing Anxiety. At the end of each treatment period, study participants completed a clinically-validated survey entitled the Hamilton Anxiety Rating Scale^29. Each item in this rating scale is scored on a scale of 0 (not present) to 4 (severe), with a total score range of 0-53, where <14 indicates mild severity, 15-21 mild to moderate severity, and 22-27 moderate to severe. Based on this survey, the CBD formulation decreases anxiety in participants DR13 (FIG. 8A), DR16 (FIG. 8B), and DR21 (FIG. 8C) relative to the placebo control or CBD alone.
FIG. 9A is a graph showing the CBD formulation decreases Anxiety in “Responders”. […] Each item in this rating scale is scored on a scale of 0 (not present) to 4 (severe), with a total score range of 0-53, where <14 indicates mild severity, 15-21 mild to moderate severity, and 22-27 moderate to severe. […]
To measure the effects of the CBD formulation on anxiety, study participants completed a modified version of the Hamilton Anxiety Rating Scale, one of the first rating scales developed to measure the severity of anxiety symptoms that is widely used in clinical and research settings^29. […] Each item is scored on a scale of 0 (not present) to 4 (severe), with a total score range of 0-53, where <14 indicates mild severity, 15-21 mild to moderate severity, and 22-27 moderate to severe.

For data set [9] the following is noted: given before simulation public speaking test; vs placebo; cited from earlier work.
Data set [10] can be described thus: Clinical study 1: sleep survey / Participant Global Impression (PGI) questionnaire. Type of data set: in vivo, humans. To be noted: participant DR11; sleep survey at end of treatment period. From the text:
FIG. 7 is a graph showing the Study Participants Perceived That the CBD formulation Helped Them Sleep Better [p=0.13; (t test). n=23 responders per treatment group. Values are means±SEM]. At the end of each treatment period, study participants used a PGI questionnaire to determine if the treatment influenced their sleep relative to a baseline period before the treatments were initiated. Scoring Matrix: 1=Treatment Helped; 2-No Effect of Treatment; 3-Treatment Worsened.
In the first study, participants (N=23) were randomized to take a placebo control or the CBD formulation stated as Defined CBD in the Figures (˜300 mg CBD, ˜8 mg terpenes including linalool, myrcene, phytol, limonene, α-terpinene, α-terpineol, α-pinene, and β-caryophyllene) once daily, one hour before bedtime, for seven consecutive nights. […] Indeed, on average, over seven days of treatment, participant DR11 benefitted from nearly an extra hour of restorative sleep each night relative to the placebo control (FIG. 2B). Furthermore, participant DR11 was also able to perceive an improvement in their sleep quality and duration relative to the placebo control when they responded to a clinically validated sleep survey at the end of the treatment periods (as shown in Table 1).
At the end of each treatment period in the clinical studies, participants completed a modified version of a clinically validated questionnaire entitled the Participant Global Impression (PGI)^28. PGI assessments are based on the participant's global perception of the effects of treatment on sleep during each treatment period, as compared to their sleep during the baseline period of the study. […] Nevertheless, based on post-hoc power analysis performed, this effect would achieve statistical significance with a larger sample number.

`CCCCCc1cc(O)c2c(c1)OC(C)(C)[C@@H]1CCC(C)=C[C@@H]21` [THC, tetrahydrocannabinol]: the “anxiety-promoting properties in clinical studies” value in data set [1] (in vivo) is “anxiogenic”.
On to `C=C(C)C1CC=C(C)CC1` (centres unmarked) [limonene, 1-methyl-4-prop-1-en-2-ylcyclohexene], for which the “brain GABA levels” value in [2] was “increased”. Further, the sedation in animals entry in data set [3] is on record as “induce sedation”. In [4], the locomotor activity result was “reduced”, the motor coordination entry was “impaired” and the sleep result was “induced sleep”.
For the molecule `C=CC(C)(O)CCC=C(C)C` (centres unmarked) [linalool], the “binding to the GABA site or the benzodiazepine site of the GABAA receptor” value in the data set with GABAA receptor [5] is “does not bind”. Further, the sedation in animals result in [3] is “induce sedation”. In the data set on GABAA receptor [6], the “GABAA receptor activity in cells” value is “significantly augment”. For the same molecule, the sleep entry in data set [4] is “increases sleep”.
For the molecule `C=CC(=C)CCC=C(C)C` [myrcene, 7-methyl-3-methylene-1,6-octadiene], the sedation in animals entry in data set [3] is “induce sedation”. Further, the “GABAA receptor activity in cells” value in the data set on GABAA receptor [6] is “increased”.
In the case of `C/C(=C\CO)CCC[C@H](C)CCC[C@H](C)CCCC(C)C` [phytol, (2E,7R,11R)-3,7,11,15-Tetramethylhexadec-2-en-1-ol], at SSADH, the “inhibition of SSADH” value is on record as “inhibiting”. In addition, in data set [3], the sedation in animals entry was “induce sedation”. Also, the “sedative effects blocked by flumazenil” value in data set [4] is “blocked”.
In the case of `CC1=CCC2CC1C2(C)C` (stereo not drawn) [α-pinene, 2,6,6-trimethylbicyclo[3.1.1]hept-2-ene], the sedation in animals entry in [3] is reported as “induce sedation”. In addition, the “GABAA receptor activity in cells” value in the data set on GABAA receptor [6] is “increased”. Moreover, the “effect in neurons blocked by flumazenil” value with GABAA receptor [6] (neurons, flumazenil (benzodiazepine site antagonist)) is reported as “fully blocked”. For the same molecule, in data set [4], the “sedative effects blocked by flumazenil” value was “blocked”.
`CC1=CC=C(C(C)C)CC1` [α-terpinene, 1-methyl-4-propan-2-ylcyclohexa-1,3-diene]: the sedation in animals result in data set [3] is on record as “induce sedation”.
As for `CC1=CCC(C(C)(C)O)CC1` (stereo not drawn) [α-terpineol, 2-(4-methylcyclohex-3-en-1-yl)propan-2-ol], in data set [3], the sedation in animals result is on record as “induce sedation”. Besides, in the data set on GABAA receptor [6], the “GABAA receptor activity in cells” value is on record as “increase”.
Turning to `C=C1CC/C=C(\C)CC[C@@H]2[C@@H]1CC2(C)C` [β-caryophyllene], in data set [3], the sedation in animals entry is “induce sedation”. Besides, in data set [4], the locomotor activity result is “did not affect”, the motor coordination result is listed as “did not affect” and the sleep entry is listed as “mildly promote sleep”.
For cannabidiol [CBD alone], in [7], the “increase in percentage of time spent in REM sleep” value was “about 4%” and the “increase in percentage of time spent in restorative sleep” value was “about 2%”. Also, the “block of the anxiogenic effects of THC” value in data set [1] (clinical studies) was “can be blocked”. In addition, in data set [8], the “Hamilton Anxiety Rating Scale score” value was 11. Moreover, in data set [9], the “anxiety, cognitive impairment and discomfort” value is given as “significantly reduced”; the “hyper-alertness in anticipatory speech” value is reported as “significantly decreased”. In data set [10], the “Decreased Sleep Onset” value is listed as “No”, the “Improved Sleep” value is “No” and the “Lengthened Sleep Duration” value is “No”.
